Assays:
Type in all cases: in vivo
[1] = system: slender amaranth (Am); test: Test Example 5: crop plant selectivity by upland field soil treatment (wheat), herbicidal effects; set-up: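 grade of growth control; 5 = at least 90%; 4 = 70 to 90%; 3 = 50 to 70%; 2 = 30 to 50%; 1 = 10 to 30%; 0 = under 10%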; conditions: 21st day after application
Outline: (§1)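 Pre-emergence soil treatment, sand-filled pots, seeds covered with soil; greenhouse culture; visual scoring of weed control and wheat injury at day 21 post-application.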

[2] = system: green foxtail (Se); test: as above; set-up: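 grade of growth control; 5 = at least 90%; 4 = 70 to 90%; 3 = 50 to 70%; 2 = 30 to 50%; 1 = 10 to 30%; 0 = under 10%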; conditions: 21st day after application
Outline: as §1

[3] = system: China jute (Ab); test: as above; set-up: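 grade of growth control; 5 = at least 90%; 4 = 70 to 90%; 3 = 50 to 70%; 2 = 30 to 50%; 1 = 10 to 30%; 0 = under 10%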; conditions: 21st day after application
Outline: as §1

[4] = system: pale smartweed (Po); test: as above; set-up: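 grade of growth control; 5 = at least 90%; 4 = 70 to 90%; 3 = 50 to 70%; 2 = 30 to 50%; 1 = 10 to 30%; 0 = under 10%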; conditions: 21st day after application
Outline: as §1

[5] = system: slender amaranth (Am); test: Test Example 2: herbicidal effects by upland field soil treatment; conditions: 100 g of the active ingredient per 10 ares;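 further: grade of growth control; 5 = at least 90%; 4 = 70 to 90%; 3 = 50 to 70%; 2 = 30 to 50%; 1 = 10 to 30%; 0 = under 10%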
Text: (§2) (Test on Herbicidal Effects by Upland Field Soil Treatment)

[6] = system: common lambsquarters (Ch); test: as above; conditions: 100 g of the active ingredient per 10 ares;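 further: grade of growth control; 5 = at least 90%; 4 = 70 to 90%; 3 = 50 to 70%; 2 = 30 to 50%; 1 = 10 to 30%; 0 = under 10%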
Text: as §2

[7] = system: rice flatsedge (Ci); test: as above; conditions: 100 g of the active ingredient per 10 ares;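 further: grade of growth control; 5 = at least 90%; 4 = 70 to 90%; 3 = 50 to 70%; 2 = 30 to 50%; 1 = 10 to 30%; 0 = under 10%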
Text: as §2

[8] = system: pale smartweed (Po); test: as above; conditions: 100 g of the active ingredient per 10 ares
Text: as §2

[9] = system: Digitaria ciliaris (Di); test: as above; conditions: 100 g of the active ingredient per 10 ares;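 further: grade of growth control; 5 = at least 90%; 4 = 70 to 90%; 3 = 50 to 70%; 2 = 30 to 50%; 1 = 10 to 30%; 0 = under 10%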
Text: as §2

[10] = system: barnyardgrass (Ec); test: as above; conditions: 100 g of the active ingredient per 10 ares
Text: as §2

[11] = 21st day after the application, index 0-5 of Table 47
[12] = evaluated on the 21st day after application

| Structure (SMILES) | Herbicidal effects Am ([1]; dose 1.6 g ai/10a) | Herbicidal effects Am ([1]; dose 6.3 g ai/10a) | Herbicidal effects Se ([2]; dose 1.6 g ai/10a) | Herbicidal effects Se ([2]; dose 6.3 g ai/10a) | Herbicidal effects Ab ([3]; dose 1.6 g ai/10a) | Herbicidal effects Ab ([3]; dose 6.3 g ai/10a) | Herbicidal effects Po ([4]; dose 1.6 g ai/10a) | Herbicidal effects Po ([4]; dose 6.3 g ai/10a) | Herbicidal effects Am [5, 11] | Herbicidal effects Ch [6, 11] | Herbicidal effects Ci [7, 11] | Herbicidal effects Po [8, 11] | Herbicidal effects Di [9, 11] | Herbicidal effects Ec [10, 11] | Herbicidal effects Am [5, 12] | Herbicidal effects Ch [6, 12] | Herbicidal effects Ci [7, 12] | Herbicidal effects Po [8, 12] | Herbicidal effects Di [9, 12] | Herbicidal effects Ec [10, 12] |
| --- | --- | --- | --- | --- | --- | --- | --- | --- | --- | --- | --- | --- | --- | --- | --- | --- | --- | --- | --- | --- |
| Cn1c(C(F)(F)F)ccc(-c2cc(OCC(F)(F)F)c(Cl)cc2F)c1=O [1-155] | 5 | 5 | 5 | 5 | 5 | 5 | 5 | 5 | 5 | 5 | 5 | 5 | 5 | 5 |  |  |  |  |  |  |
| Cn1c(C(F)(F)F)ccc(-c2cc(OCC3CC3)c(Cl)cc2F)c1=O [1-160] |  | 5 |  | 5 |  | 5 |  | 5 | 5 | 5 | 5 | 5 | 5 | 5 |  |  |  |  |  |  |
| Cn1c(C(F)(F)F)ccc(-c2cc(OCCCl)c(Cl)cc2F)c1=O [1-171] |  | 5 |  | 5 |  | 5 |  | 5 |  |  |  |  |  |  | 5 | 5 | 5 | 5 | 5 | 5 |
| C#CCOc1cc(-c2ccc(C(F)(F)F)n(N)c2=O)c(F)cc1Cl [1-178] | 5 |  | 5 |  | 5 |  | 5 |  |  |  |  |  |  |  | 5 | 5 | 5 | 5 | 5 | 5 |
| COc1cc(-c2ccc(C(F)(F)F)n(N)c2=O)c(F)cc1Cl [1-179] |  | 5 |  | 5 |  | 5 |  | 5 |  |  |  |  |  |  | 5 | 5 | 5 | 5 | 5 | 5 |
| CCOCOc1cc(-c2ccc(C(F)(F)F)n(C)c2=O)c(F)cc1Cl [1-181] |  | 5 |  | 5 |  | 5 |  | 5 |  |  |  |  |  |  | 5 | 5 | 5 | 5 | 5 | 5 |
| C#CC(C)Oc1cc(Cl)cc(F)c1-c1ccc(C(F)(F)F)n(C)c1=O (stereo not drawn) [1′-5] | 5 | 5 | 4 | 5 | 5 | 5 | 5 | 5 |  |  |  |  |  |  | 5 | 5 | 5 | 5 | 5 | 5 |
| C=CC(C)Oc1cc(-c2ccc(C(F)(F)F)n(C)c2=O)c(F)cc1Cl (stereo not drawn) [Compound 1-182] |  | 5 |  | 5 |  | 5 |  | 5 |  |  |  |  |  |  | 5 | 5 | 5 | 5 | 5 | 5 |
| CCON=Cc1cc(-c2ccc(C(F)(F)F)n(C)c2=O)c(F)cc1Cl [Compound 1-187] |  | 5 |  | 5 |  | 5 |  | 5 |  |  |  |  |  |  | 5 | 5 | 5 | 5 | 5 | 5 |
| CCOC(=O)CON=Cc1cc(-c2ccc(C(F)(F)F)n(C)c2=O)c(F)cc1Cl [Compound 1-191] |  | 5 |  | 5 |  | 5 |  | 5 |  |  |  |  |  |  | 5 | 5 | 5 | 5 | 5 | 5 |
| C=CC(O)c1cc(-c2ccc(C(F)(F)F)n(C)c2=O)c(F)cc1Cl (stereo not drawn) [Compound 1-197] |  | 5 |  | 5 |  | 5 |  | 5 |  |  |  |  |  |  | 5 | 5 | 5 | 5 | 5 | 5 |
| C#CC(O)c1cc(-c2ccc(C(F)(F)F)n(C)c2=O)c(F)cc1Cl (stereo not drawn) [Compound 1-202] | 5 |  | 5 |  | 5 |  | 5 |  |  |  |  |  |  |  | 5 | 5 | 5 | 5 | 5 | 5 |
| CSCOc1cc(-c2ccc(C(F)(F)F)n(C)c2=O)c(F)cc1Cl [Compound 1-208] |  | 5 |  | 5 |  | 5 |  | 4 |  |  |  |  |  |  | 5 | 5 | 5 | 5 | 5 | 5 |
| Cn1c(C(F)(F)F)ccc(-c2cc(C#N)c(Cl)cc2F)c1=O [Compound No. 1-119, 3-(4-chloro-5-cyano-2-fluorophenyl)-1-methyl-6-trifluoromethyl-2(1H)-pyridone] |  |  |  |  |  |  |  |  | 5 | 5 | 5 | 5 | 5 | 5 |  |  |  |  |  |  |

Source: patent US6472348B1, “Pyridone derivatives and herbicides” (Kumiai Chemical Industry Co., Ltd., priority 1996, dated 2002)
